# Measured values as given in PubChem BioAssay (NCI).
#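 Cultured in 96-well plates, cells were exposed to test compound for 48 hours across five concentrations. GI50 marks 50% less growth. TGI is the concentration that stops growth completely.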
# Key:
# Assay in all cases: inhibition of tumour cell growth, NCI panel, 48 h
# SW-620 colon = test system: SW-620 colon
# CCRF-CEM leukemia = test system: CCRF-CEM leukemia
# SK-MEL-5 melanoma = test system: SK-MEL-5 melanoma
# SK-MEL-2 melanoma = test system: SK-MEL-2 melanoma
# NCI-H226 lung = test system: NCI-H226 lung
# MCF7 breast = test system: MCF7 breast
# HCC-2998 colon = test system: HCC-2998 colon
# A549 NSCLC = test system: A549 NSCLC
# BT-549 breast = test system: BT-549 breast
# RPMI-8226 leukemia = test system: RPMI-8226 leukemia
# NCI-H522 lung = test system: NCI-H522 lung
# SK-MEL-28 melanoma = test system: SK-MEL-28 melanoma
# SN12C renal = test system: SN12C renal
# OVCAR-8 ovarian = test system: OVCAR-8 ovarian
# CAKI-1 renal = test system: CAKI-1 renal
# NCI-H23 lung = test system: NCI-H23 lung
# SF-268 CNS = test system: SF-268 CNS
# MDA-MB-468 breast = test system: MDA-MB-468 breast
# NCI/ADR-RES ovarian = test system: NCI/ADR-RES ovarian
# T-47D breast = test system: T-47D breast
# KM12 colon = test system: KM12 colon
# HS 578T breast = test system: HS 578T breast
# NCI-H460 lung = test system: NCI-H460 lung
# UACC-62 melanoma = test system: UACC-62 melanoma
# LOX IMVI melanoma = test system: LOX IMVI melanoma
# SNB-19 CNS = test system: SNB-19 CNS
# HL-60(TB) leukemia = test system: HL-60(TB) leukemia
# DU-145 prostate = test system: DU-145 prostate
# MDA-MB-435 = test system: MDA-MB-435
# OVCAR-4 ovarian = test system: OVCAR-4 ovarian
# HCT-116 colon = test system: HCT-116 colon
# SF-539 CNS = test system: SF-539 CNS
# HOP-62 NSCLC = test system: HOP-62 NSCLC
# RXF 393 renal = test system: RXF 393 renal
# ACHN renal = test system: ACHN renal
# TK-10 renal = test system: TK-10 renal
# HT29 colon = test system: HT29 colon
# EKVX NSCLC = test system: EKVX NSCLC
# COLO 205 colon = test system: COLO 205 colon
# K-562 leukemia = test system: K-562 leukemia
# OVCAR-3 ovarian = test system: OVCAR-3 ovarian
# HOP-92 NSCLC = test system: HOP-92 NSCLC
# SK-OV-3 ovarian = test system: SK-OV-3 ovarian
# SNB-75 CNS = test system: SNB-75 CNS
# PC-3 prostate = test system: PC-3 prostate
# MALME-3M melanoma = test system: MALME-3M melanoma
# SF-295 CNS = test system: SF-295 CNS
# 786-0 renal = test system: 786-0 renal
# U251 CNS = test system: U251 CNS
# IGROV1 ovarian = test system: IGROV1 ovarian
# M14 melanoma = test system: M14 melanoma
# OVCAR-5 ovarian = test system: OVCAR-5 ovarian
# MOLT-4 leukemia = test system: MOLT-4 leukemia
# UACC-257 melanoma = test system: UACC-257 melanoma
# A498 renal = test system: A498 renal
# HCT-15 colon = test system: HCT-15 colon
smiles,measurement,setting,value
COc1cccc(-c2ccc(/C=N/NC(=O)c3[nH]c4ccc(Br)cc4c3-c3ccccc3)o2)c1,GI50,SW-620 colon,4.6 µM
same,TGI,SW-620 colon,> 100 µM
same,GI50,CCRF-CEM leukemia,4.19 µM
same,TGI,CCRF-CEM leukemia,9.66 µM
same,GI50,SK-MEL-5 melanoma,2.94 µM
same,TGI,SK-MEL-5 melanoma,11.3 µM
same,GI50,SK-MEL-2 melanoma,3.04 µM
same,TGI,SK-MEL-2 melanoma,9.76 µM
same,GI50,NCI-H226 lung,10.2 µM
same,TGI,NCI-H226 lung,50.6 µM
same,GI50,MCF7 breast,3.5 µM
same,TGI,MCF7 breast,> 100 µM
same,GI50,HCC-2998 colon,4.16 µM
same,TGI,HCC-2998 colon,72.9 µM
same,GI50,A549 NSCLC,3.55 µM
same,TGI,A549 NSCLC,17.7 µM
same,GI50,BT-549 breast,2.8 µM
same,TGI,BT-549 breast,7.06 µM
same,GI50,RPMI-8226 leukemia,3.05 µM
same,TGI,RPMI-8226 leukemia,10.9 µM
same,GI50,NCI-H522 lung,2 µM
same,TGI,NCI-H522 lung,4.72 µM
same,GI50,SK-MEL-28 melanoma,7.18 µM
same,TGI,SK-MEL-28 melanoma,52.9 µM
same,GI50,SN12C renal,4.13 µM
same,TGI,SN12C renal,18.9 µM
same,GI50,OVCAR-8 ovarian,2.39 µM
same,TGI,OVCAR-8 ovarian,5.57 µM
same,GI50,CAKI-1 renal,11.4 µM
same,TGI,CAKI-1 renal,> 100 µM
same,GI50,NCI-H23 lung,5.23 µM
same,TGI,NCI-H23 lung,40.3 µM
same,GI50,SF-268 CNS,4.94 µM
same,TGI,SF-268 CNS,48.3 µM
same,GI50,MDA-MB-468 breast,2.29 µM
same,TGI,MDA-MB-468 breast,6.38 µM
same,GI50,NCI/ADR-RES ovarian,2.4 µM
same,TGI,NCI/ADR-RES ovarian,6.26 µM
same,GI50,T-47D breast,7.94 µM
same,TGI,T-47D breast,> 100 µM
same,GI50,KM12 colon,3.96 µM
same,TGI,KM12 colon,49.6 µM
same,GI50,HS 578T breast,3.73 µM
same,TGI,HS 578T breast,41.2 µM
same,GI50,NCI-H460 lung,3.26 µM
same,TGI,NCI-H460 lung,18 µM
same,GI50,UACC-62 melanoma,4.17 µM
same,TGI,UACC-62 melanoma,> 100 µM
same,GI50,LOX IMVI melanoma,3.84 µM
same,TGI,LOX IMVI melanoma,16.6 µM
same,GI50,SNB-19 CNS,3.84 µM
same,TGI,SNB-19 CNS,20.2 µM
same,GI50,HL-60(TB) leukemia,2.21 µM
same,TGI,HL-60(TB) leukemia,5.08 µM
same,GI50,DU-145 prostate,4.19 µM
same,TGI,DU-145 prostate,> 100 µM
same,GI50,MDA-MB-435,2.72 µM
same,TGI,MDA-MB-435,8.57 µM
same,GI50,OVCAR-4 ovarian,26.2 µM
same,TGI,OVCAR-4 ovarian,> 100 µM
same,GI50,HCT-116 colon,3.33 µM
same,TGI,HCT-116 colon,12.3 µM
same,GI50,SF-539 CNS,2.35 µM
same,TGI,SF-539 CNS,5.51 µM
same,GI50,HOP-62 NSCLC,3.54 µM
same,TGI,HOP-62 NSCLC,15.3 µM
same,GI50,RXF 393 renal,2.37 µM
same,TGI,RXF 393 renal,5.93 µM
same,GI50,ACHN renal,5.43 µM
same,TGI,ACHN renal,> 100 µM
same,GI50,TK-10 renal,29.1 µM
same,TGI,TK-10 renal,> 100 µM
same,GI50,HT29 colon,2.36 µM
same,TGI,HT29 colon,5.47 µM
same,GI50,EKVX NSCLC,6.71 µM
same,TGI,EKVX NSCLC,> 100 µM
same,GI50,COLO 205 colon,2.48 µM
same,TGI,COLO 205 colon,7.74 µM
same,GI50,K-562 leukemia,2.89 µM
same,TGI,K-562 leukemia,12.9 µM
same,GI50,OVCAR-3 ovarian,2.48 µM
same,TGI,OVCAR-3 ovarian,8.6 µM
same,GI50,HOP-92 NSCLC,12.8 µM
same,TGI,HOP-92 NSCLC,46 µM
same,GI50,SK-OV-3 ovarian,3.61 µM
same,TGI,SK-OV-3 ovarian,36.2 µM
same,GI50,SNB-75 CNS,2.87 µM
same,TGI,SNB-75 CNS,15.1 µM
same,GI50,PC-3 prostate,3.96 µM
same,TGI,PC-3 prostate,75 µM
same,GI50,MALME-3M melanoma,3.72 µM
same,TGI,MALME-3M melanoma,32.6 µM
same,GI50,SF-295 CNS,3.16 µM
same,TGI,SF-295 CNS,14.1 µM
same,GI50,786-0 renal,2.84 µM
same,TGI,786-0 renal,8.73 µM
same,GI50,U251 CNS,3.44 µM
same,TGI,U251 CNS,12.7 µM
same,GI50,IGROV1 ovarian,4.6 µM
same,TGI,IGROV1 ovarian,> 100 µM
same,GI50,M14 melanoma,3.49 µM
same,TGI,M14 melanoma,> 100 µM
same,GI50,OVCAR-5 ovarian,4.31 µM
same,TGI,OVCAR-5 ovarian,44.9 µM
same,GI50,MOLT-4 leukemia,3.34 µM
same,TGI,MOLT-4 leukemia,12.3 µM
same,GI50,UACC-257 melanoma,6.86 µM
same,TGI,UACC-257 melanoma,69.2 µM
same,GI50,A498 renal,93.2 µM
same,TGI,A498 renal,> 100 µM
same,GI50,HCT-15 colon,3.34 µM
same,TGI,HCT-15 colon,16.9 µM
